In one experiment the target is T1, human Flt-3 (Homo sapiens, UniProt P36888).
T1 construct: fused to the N-terminus of the intracellular domain (583-953 amino acids) thereof; made in house; host or cells: insect cells (baculovirus)
T1 sequence (P36888 583-953): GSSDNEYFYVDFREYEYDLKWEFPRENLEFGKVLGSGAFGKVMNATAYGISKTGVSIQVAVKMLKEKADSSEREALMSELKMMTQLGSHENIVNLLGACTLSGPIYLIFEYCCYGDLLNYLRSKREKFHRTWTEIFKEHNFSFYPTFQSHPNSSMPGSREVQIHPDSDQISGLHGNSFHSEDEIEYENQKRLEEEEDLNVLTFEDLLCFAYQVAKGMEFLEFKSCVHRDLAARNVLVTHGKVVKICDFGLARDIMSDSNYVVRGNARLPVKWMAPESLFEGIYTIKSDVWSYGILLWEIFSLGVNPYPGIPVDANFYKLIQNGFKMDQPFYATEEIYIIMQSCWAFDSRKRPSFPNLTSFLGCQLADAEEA
Kind of experiment: Inhibitory activity on Flt-3 (GST-fused kinase, time-resolved fluoroimmunoassay). The note with it: tested compound 10 μmol/L, ATP 10 μmol/L, sixty minutes. In kind it is biochemical. On the procedure: Flt-3 inhibitory activities were determined in the following manner.
Flt-3 was prepared by allowing baculovirus to infect insect cells, which baculovirus expresses a protein comprising human Flt-3 with […]. […] Separately was prepared a solution containing, at final concentrations, GST-fused Flt-3 (100 μg/L), Tris-Cl (pH 7.5) (20 mmol/L), β-glycerophosphate (5 mmol/L), dithiothreitol (DTT) (1 mmol/L), Na3VO4 (0.1 mmol/L), MgCl2 (10 mmol/L), MnCl2 (10 mmol/L), ATP (10 μmol/L), bovine serum albumin (BSA) (0.1%), DMSO (0.1%), and a tested compound (10 μmol/L). The solution (each 60 μL) was placed into the wells of the plate for the determination of kinase reaction, followed by enzymatic reaction at room temperature for sixty minutes. After reacting, the reaction was stopped by the addition of 50 μL of a 25 mmol/L aqueous solution of ethylenediaminetetraacetic acid. […] The relative activity (%) of a well in which the enzyme and tested compound were added was determined by calculation with the value in a well to which the tested compound was not added being 100% and the value in a well to which the enzyme and the tested compound were not added being 0%. The Flt-3 inhibitory activity (%) of the tested compound was determined by subtracting the relative activity (%) from 100.

The test system of a further experiment is Colo205. Kind of experiment: Cytostatic activity on human colon cancer cell line Colo205 (WST-1). The conditions noted are these: 10 μmol/L, 72 hours. The experiment is classed as cell-based. The procedure:
The cytostatic rate of a test compound on the human colon cancer cell line Colo205 was determined in the following manner.
The cell was cultured using Roswell Park Memorial Institute's-Medium (RPMI) 1640 (Gibco, Catalog No. 11875-093) containing 10% fetal bovine serum (Gibco, Catalog-No. 10437-028) and penicillin/streptomycin (1:1) (Gibco, Catalog No. 15140-122). Each 80 μL of the Colo205 having a concentration of 1.25×10^4 cells/mL was inoculated to wells of a TC MICROWELL 96F plate (Nalge Nunc International, Catalog No. 167008) and was cultured in a 5% carbon dioxide gas incubator at 37° C. for 4 hours. As a blank, only RPMI (80 μL) was added to a well. Each 20 μL of a solution of the test compound in DMSO which was prepared to make the final concentration to 10 μmol/L, was added to the Colo205 cell. Each 20 μL of DMSO was added to the control well and the blank well to a final concentration of 0.1%. After adding the test compound, the cell was incubated in a 5% carbon dioxide gas incubator at 37° C. for 72 hours. The cytostatic rate (%) was then determined in the same manner as the method or the leukemia cell lines described above.

A further experiment deals with ML-1. The experiment is described as follows: Cytostatic activity on human acute myeloid leukemia cell line ML-1 (WST-1). The conditions noted are these: ML1, 3.16 μmol/L, 72 hours, read-out: ML-1 (%) cytostatic rate. In kind it is cell-based. On the procedure:
(§1) The cytostatic rates of a test compound on human acute myeloid leukemia cell lines MV-4-11 and ML-1, and human chronic myeloid leukemia cell line K562 were determined in the following manner.
(§2) Each cell was cultured using Roswell Park Memorial Institute's Medium (RPMI) 1640 (Gibco, Catalog No. 11875-093) containing 10% fetal bovine serum (Gibco, Catalogue No. 10437-028) and penicillin/streptomycin (1:1) (Gibco, Catalogue No. 15140-122). Each 80 μL of the MV-4-11 cell having a concentration of 7.5×10^4 cells/mL (or the ML-1 cell or K562 cell having a concentration of 2.5×10^4 cells/mL) was inoculated to wells of a TC MICROWELL 96U plate (Nalge Nunc International, Catalogue No. 163320) and was cultured in a 5% carbon dioxide gas incubator at 37° C. for 4 hours. As a blank, only RPMI medium (80 μL) was added to a well. Each 20 μL of a solution of the test compound in dimethyl sulfoxide (DMSO) which was prepared to make the final concentration to 3.16 μmol/L or 10 μmol/L, was added to the MV-4-11 cell, ML-1 cell and K562 cell, respectively. Each 20 μL of DMSO was added to the control well and the blank well to a final concentration of 0.1%. After adding the test compound, the cells were incubated in a 5% carbon dioxide gas incubator at 37° C. for 72 hours. After adding 20 μL of WST-1 reagent {4-[3-(4-iodophenyl)-2-(4-nitrophenyl)-2H-5-tetrazolio]-1,3-benzene disulfonate sodium salt) (Roche Diagnostics K.K., Catalogue No. 1644807) diluted to 50% with RPMI medium, the cells were further incubated at 37° C. for 2 hours. Then, the absorbances at 450 nm (reference wavelength: 690 nm) were determined with a microplate spectrophotometer SPECTRA max 340PC (Molecular Devices Corporation). The relative growth (%) of a well to which the test compound had been added was determined while setting the absorbance of a well to which not the test compound but DMSO alone had been added (control) at 100% and that of a well containing RPMI medium alone at 0%. The cytostatic rate (%) of the test compound was determined by subtracting the calculated relative growth from 100.

The test system of a further experiment is MV-4-11. Kind of experiment: Cytostatic activity on human acute myeloid leukemia cell line MV-4-11 (WST-1). The experiment is classed as cell-based. The note with it: MV4-11, 3.16 μmol/L, 72 hours, read-out: MV-4-11 (%) cytostatic rate. On the procedure:
as §1, §2

Another experiment concerns K562. Kind of experiment: Cytostatic activity on human chronic myeloid leukemia cell line K562 (WST-1). In kind it is cell-based. The conditions noted are these: 10 μmol/L, 72 hours, read-out: K562 (%) cytostatic rate. On the procedure: as §1, §2

SMILES strings stand for the structures. Counter-ions that a name gives are not always drawn.

13 compounds from patent publication US20060281789A1, “Protein kinase inhibitors” (KYOWA HAKKO KOGYO CO., LTD, priority 2003, published 2006) can be followed below.

In the case of `N#Cc1cc(/C=C/c2n[nH]c3ccccc23)ccc1OCCN1CCOCC1` [Compound 47, (E)-3-{2-[3-cyano-4-(2-morpholinoethoxy)phenyl]vinyl}-1H-indazole], the inhibition at 10 µM against human Flt-3 is 94.5%; in the experiment on K562, 75%. For the same compound, the “Colo205(%) cytostatic rate” value in the experiment on Colo205 is on record as 68%. Also, the inhibition at 3.16 µM was 89% with ML-1 and 98% in the experiment with MV-4-11.

Consider `CC(=O)N1CCN(c2ccc(/C=C/c3n[nH]c4ccccc34)cc2)CC1` [Compound 54, (E)-3-(2-[4-(4-acetylpiperazin-1-yl)phenyl]vinyl}-1H-indazole], for which the inhibition at 10 µM at human Flt-3 is 94%; in the experiment with K562, 59%. Besides, the “Colo205(%) cytostatic rate” value in the experiment with Colo205 is recorded as 78%. For the same compound, the values for the inhibition at 3.16 µM with ML-1 and in the experiment on MV-4-11 were 89% and 98%, respectively.

`Nc1cc(/C=C/c2n[nH]c3ccccc23)ccc1N1CCNCC1` [Compound 59, (E)-3-{2-[3-amino-4-(piperazin-1-yl)phenyl]vinyl}-1H-indazole]: the “Colo205(%) cytostatic rate” value in the experiment with Colo205 turned out to be 89%. The values for the inhibition at 3.16 µM in the experiment on ML-1 and in the experiment on MV-4-11 were 86% and 98%, respectively. Besides, in the experiment with K562, the inhibition at 10 µM was determined as 84%.

Turning to `CC(=O)N1CCN(c2ccc(/C=C/c3n[nH]c4ccccc34)cc2N)CC1` [Compound 58, (E)-3-{2-[4-(4-acetylpiperazin-1-yl)-3-aminophenyl]vinyl}-1H-indazole], the “Colo205(%) cytostatic rate” value in the experiment with Colo205 was determined as 91%. The inhibition at 3.16 µM in the experiment with ML-1 was found to be 90%; with MV-4-11 it was 97%. Also, the inhibition at 10 µM in the experiment on K562 is 61%.

Consider `CN(C)CCOc1cccc(/C=C/c2n[nH]c3ccccc23)c1` [Compound 18, (E)-3-{2-[3-(2-dimethylaminoethoxy)phenyl]vinyl}-1H-indazole hydrochloride], for which the inhibition at 3.16 µM in the experiment on ML-1 is 4.1%; in the experiment on MV-4-11 it was 95%. In addition, the inhibition at 10 µM in the experiment on K562 turned out to be 59%.

As to `C(=C\c1n[nH]c2ccccc12)/c1ccc(N2CCNCC2)cc1.Cl` [Compound 53, (E)-3-{2-[4-(piperazin-1-yl)phenyl]vinyl}-1H-indazole hydrochloride], the inhibition at 10 µM at human Flt-3 turned out to be 95.2%; in the experiment on K562, 87%. Further, in the experiment on Colo205, the “Colo205(%) cytostatic rate” value came out at 90%. The values for the inhibition at 3.16 µM with ML-1 and in the experiment with MV-4-11 were 80% and 97%, respectively.

Turning to `COc1cc(/C=C/c2n[nH]c3ccccc23)ccc1OCC(=O)N1CCOCC1` [Compound 40, (E)-N-{4-[2-(1H-indazol-3-yl)vinyl]-2-methoxyphenoxy}acetylmorpholine], the inhibition at 10 µM at human Flt-3 is 93.8%; with K562, 60%. The “Colo205(%) cytostatic rate” value in the experiment with Colo205 came to 93%. Also, the inhibition at 3.16 µM in the experiment on ML-1 and in the experiment with MV-4-11 was 95% in each case.

For the compound `CN(C)CCCOc1ccc(/C=C/c2n[nH]c3ccccc23)cc1` [Compound 10, (E)-3-{2-[4-(3-dimethylaminopropoxy)phenyl]vinyl}-1H-indazole hydrochloride], the inhibition at 3.16 µM came out at 92% in the experiment with ML-1 and 97% with MV-4-11. The inhibition at 10 µM in the experiment on K562 was found to be 95%.

Turning to `C(=C\c1n[nH]c2ccccc12)/c1ccc(OCCCN2CCCCC2)cc1` [Compound 9, (E)-3-{2-[4-(3-piperidinopropoxy)phenyl]vinyl}-1H-indazole hydrochloride], the inhibition at 3.16 µM is 92% in the experiment on ML-1 and 97% with MV-4-11. Also, the inhibition at 10 µM in the experiment on K562 worked out at 97%.

Take `C(=C\c1n[nH]c2ccccc12)/c1ccc(OCCN2CCOCC2)cc1` [Compound 5, (E)-3-{2-[4-(2-morpholinoethoxy)phenyl]vinyl}-1H-indazole hydrochloride]: the inhibition at 10 µM against human Flt-3 was determined as 93.3%; in the experiment on K562, 81%. In the experiment with Colo205, the “Colo205(%) cytostatic rate” value stood at 90%. In addition, the inhibition at 3.16 µM in the experiment on ML-1 came to 16%; with MV-4-11 it was 91%.

On to `CCN(CC)CCOc1ccc(/C=C/c2n[nH]c3ccccc23)cc1` [Compound 6, (E)-3-{2-[4-(2-diethylaminoethoxy)phenyl]vinyl}-1H-indazole hydrochloride], for which the inhibition at 3.16 µM in the experiment on ML-1 amounted to 89%; with MV-4-11 it was 97%. For the same compound, the inhibition at 10 µM in the experiment on K562 was 98%.

Turning to `COc1ccc(/C=C/c2n[nH]c3ccccc23)cn1` [Compound 22, (E)-3-[2-(6-methoxypyridin-3-yl)vinyl]-1H-indazole], the inhibition at 3.16 µM with ML-1 was 9.2%; with MV-4-11, 82%. Moreover, the inhibition at 10 µM in the experiment with K562 was determined as 63%.

For `C(=C\c1n[nH]c2ccccc12)/c1ccc(OCCN2CCCCC2)cc1` [Compound 8, (E)-3-{2-[4-(2-piperidinoethoxy)phenyl]vinyl}-1H-indazole hydrochloride], the inhibition at 3.16 µM with ML-1 stood at 90%; in the experiment with MV-4-11 it was 97%. Further, in the experiment with K562, the inhibition at 10 µM was 94%.
